Laboratory results taken from patent publication US20110282056A1, “PROTEIN KINASE INHIBITORS AND USE THEREOF” (priority 2008, published 2011).

How the values were obtained:
Format in all cases: biochemical
VEGFR2 = molecular target: T1, VEGFR2 (Homo sapiens, UniProt P35968); assay: VEGFR2 enzyme activity assay (Caliper LC3000 mobility shift); details: 160 uM ATP (Km), 1 nM VEGFR2, 90 minutes at RT
T1 construct: purchased BPS Bioscience; San Diego, Calif; 40301
Procedure: (§1) Enzyme activity for VEGFR3, VEGFR2 and Flt3 were measured on the Caliper Life Sciences LC3000 (Hopkinton, Mass.). The system utilizes the principle of electroosmotic flow to separate and quantify the amount of phosphorylated-Fluorescein-labelled-peptide (product) from unphosphorylated-Fluorescein-labelled peptide (substrate). The amount of product and substrate are determined by measuring the peak heights from the electropherogram. The enzyme activity is then quantified by dividing the amount of product by the sum of the product and substrate. The inhibitory activity of a sample is measured by comparing the enzyme activity in the presence of sample versus the enzyme activity in the presence of dimethylsufoxide (DMSO). Specific assay conditions for each enzyme are listed below:
(§2) VEGFR2 assay: The peptide substrate at 1 uM (5-FL-EEPLYWSFPAKKK-CONH2; synthesized at Tufts University, Boston, Mass.) was incubated with 160 uM of ATP, corresponding to the Michaelis-Menten (Km) constant of the enzyme/substrate reaction, and 1 nM of VEGFR2 (BPS Bioscience; San Diego, Calif.; Cat. No. 40301) for 90 minutes at RT. After 90 minutes, the reaction was stopped by the addition of 10 mM EDTA. The substrate and product were then separated on the LC3000.

VEGFR3 = molecular target: T2, VEGFR3 (Homo sapiens, UniProt P35916); assay: VEGFR3 enzyme activity assay (Caliper LC3000 mobility shift); details: 400 uM ATP (Km), 0.4 nM VEGFR3, 90 minutes at RT
T2 construct: purchased Millpore Corp. (Millipore) 14-681
T2 sequence (P35916 25-1363): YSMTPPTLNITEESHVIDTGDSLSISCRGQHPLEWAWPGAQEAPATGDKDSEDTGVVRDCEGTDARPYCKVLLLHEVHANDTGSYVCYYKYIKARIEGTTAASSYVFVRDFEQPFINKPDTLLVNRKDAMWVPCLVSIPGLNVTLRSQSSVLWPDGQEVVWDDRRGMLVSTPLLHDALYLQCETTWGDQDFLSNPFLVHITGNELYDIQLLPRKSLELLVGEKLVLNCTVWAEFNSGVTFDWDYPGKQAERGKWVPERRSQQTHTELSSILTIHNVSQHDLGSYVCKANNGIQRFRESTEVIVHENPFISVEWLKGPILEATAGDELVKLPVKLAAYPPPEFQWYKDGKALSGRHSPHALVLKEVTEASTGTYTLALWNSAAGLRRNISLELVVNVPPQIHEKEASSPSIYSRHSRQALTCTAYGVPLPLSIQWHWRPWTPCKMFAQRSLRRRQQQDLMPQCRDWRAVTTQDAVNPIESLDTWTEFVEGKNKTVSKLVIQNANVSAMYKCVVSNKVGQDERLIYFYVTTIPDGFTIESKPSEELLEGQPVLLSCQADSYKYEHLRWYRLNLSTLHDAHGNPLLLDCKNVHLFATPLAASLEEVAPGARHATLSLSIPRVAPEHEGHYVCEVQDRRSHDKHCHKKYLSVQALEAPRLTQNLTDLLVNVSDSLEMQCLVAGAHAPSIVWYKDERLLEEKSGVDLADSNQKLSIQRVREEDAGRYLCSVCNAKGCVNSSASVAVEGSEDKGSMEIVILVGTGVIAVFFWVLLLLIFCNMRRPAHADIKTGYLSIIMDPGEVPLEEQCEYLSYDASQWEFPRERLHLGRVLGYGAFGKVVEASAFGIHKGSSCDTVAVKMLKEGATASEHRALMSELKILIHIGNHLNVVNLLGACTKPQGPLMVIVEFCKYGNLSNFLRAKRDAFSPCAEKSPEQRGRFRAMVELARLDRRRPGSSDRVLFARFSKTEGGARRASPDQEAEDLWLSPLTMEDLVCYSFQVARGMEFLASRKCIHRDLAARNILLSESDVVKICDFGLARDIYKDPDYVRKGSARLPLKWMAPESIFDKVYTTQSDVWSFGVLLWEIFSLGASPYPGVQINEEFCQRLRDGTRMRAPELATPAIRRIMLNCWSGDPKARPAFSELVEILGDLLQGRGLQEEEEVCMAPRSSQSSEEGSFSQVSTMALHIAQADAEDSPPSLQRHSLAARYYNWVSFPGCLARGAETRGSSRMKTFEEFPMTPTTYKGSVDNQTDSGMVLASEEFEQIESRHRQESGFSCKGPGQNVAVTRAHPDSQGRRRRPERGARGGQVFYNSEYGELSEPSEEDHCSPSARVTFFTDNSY
Procedure: as §1
VEGFR3 assay: The peptide substrate at 1 uM (FITC-KKKKEEIYFFF-CONH2; synthesized at Tufts University, Boston, Mass.) was incubated with 400 uM of ATP, corresponding to the Michaelis-Menten (Km) constant of the enzyme/substrate reaction, and 0.4 nM of VEGFR3 (Millpore Corp., Cat. No. 14-681) for 90 minutes at RT. After 90 minutes, the reaction was stopped by the addition of 10 mM EDTA. The substrate and product were then separated on the LC3000.

Flt3 = molecular target: T3, Flt3 (Homo sapiens, UniProt P36888); assay: Flt3 enzyme activity assay (Caliper LC3000 mobility shift); details: 350 uM ATP (Km), 3 nM Flt3, 90 minutes at RT
T3 construct: purchased BPS Bioscience; San Diego, Calif; 40225
T3 sequence (P36888 27-993): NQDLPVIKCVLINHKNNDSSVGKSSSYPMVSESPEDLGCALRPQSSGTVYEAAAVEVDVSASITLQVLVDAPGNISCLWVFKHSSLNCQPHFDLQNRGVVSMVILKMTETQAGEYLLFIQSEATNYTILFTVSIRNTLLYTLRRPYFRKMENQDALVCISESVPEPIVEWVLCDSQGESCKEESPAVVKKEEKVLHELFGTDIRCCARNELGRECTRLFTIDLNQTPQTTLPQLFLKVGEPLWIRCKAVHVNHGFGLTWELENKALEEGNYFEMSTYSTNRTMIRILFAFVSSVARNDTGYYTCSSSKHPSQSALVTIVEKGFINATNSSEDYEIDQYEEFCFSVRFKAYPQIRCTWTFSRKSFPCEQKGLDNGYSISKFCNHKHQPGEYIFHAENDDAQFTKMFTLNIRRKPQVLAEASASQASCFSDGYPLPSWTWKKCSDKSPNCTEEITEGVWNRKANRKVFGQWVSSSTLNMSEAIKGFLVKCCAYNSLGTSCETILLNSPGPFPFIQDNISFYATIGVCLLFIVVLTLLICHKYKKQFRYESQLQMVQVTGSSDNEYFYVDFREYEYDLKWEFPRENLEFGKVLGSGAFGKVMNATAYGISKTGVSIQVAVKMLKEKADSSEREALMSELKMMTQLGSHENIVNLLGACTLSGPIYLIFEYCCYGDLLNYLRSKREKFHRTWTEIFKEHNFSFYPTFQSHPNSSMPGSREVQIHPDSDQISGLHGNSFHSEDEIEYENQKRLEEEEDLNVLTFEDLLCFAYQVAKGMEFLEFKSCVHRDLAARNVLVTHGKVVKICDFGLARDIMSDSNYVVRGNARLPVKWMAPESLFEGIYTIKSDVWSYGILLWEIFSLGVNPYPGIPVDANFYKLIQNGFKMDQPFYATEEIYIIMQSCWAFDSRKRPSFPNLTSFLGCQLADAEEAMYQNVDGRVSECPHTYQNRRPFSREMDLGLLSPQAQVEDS
Procedure: as §1
as §2, with “Flt3 assay:” for “VEGFR2 assay:”, “uM (FITC-AHA-UEAIYAAPFAKKK-CONH2;” for “uM (5-FL-EEPLYWSFPAKKK-CONH2;”, “with 350” for “with 160”, “and 3” for “and 1”, “of Flt3” for “of VEGFR2”, “No. 40225)” for “No. 40301)”

Measured: IC50

T1 sequence (P35968 20-1356): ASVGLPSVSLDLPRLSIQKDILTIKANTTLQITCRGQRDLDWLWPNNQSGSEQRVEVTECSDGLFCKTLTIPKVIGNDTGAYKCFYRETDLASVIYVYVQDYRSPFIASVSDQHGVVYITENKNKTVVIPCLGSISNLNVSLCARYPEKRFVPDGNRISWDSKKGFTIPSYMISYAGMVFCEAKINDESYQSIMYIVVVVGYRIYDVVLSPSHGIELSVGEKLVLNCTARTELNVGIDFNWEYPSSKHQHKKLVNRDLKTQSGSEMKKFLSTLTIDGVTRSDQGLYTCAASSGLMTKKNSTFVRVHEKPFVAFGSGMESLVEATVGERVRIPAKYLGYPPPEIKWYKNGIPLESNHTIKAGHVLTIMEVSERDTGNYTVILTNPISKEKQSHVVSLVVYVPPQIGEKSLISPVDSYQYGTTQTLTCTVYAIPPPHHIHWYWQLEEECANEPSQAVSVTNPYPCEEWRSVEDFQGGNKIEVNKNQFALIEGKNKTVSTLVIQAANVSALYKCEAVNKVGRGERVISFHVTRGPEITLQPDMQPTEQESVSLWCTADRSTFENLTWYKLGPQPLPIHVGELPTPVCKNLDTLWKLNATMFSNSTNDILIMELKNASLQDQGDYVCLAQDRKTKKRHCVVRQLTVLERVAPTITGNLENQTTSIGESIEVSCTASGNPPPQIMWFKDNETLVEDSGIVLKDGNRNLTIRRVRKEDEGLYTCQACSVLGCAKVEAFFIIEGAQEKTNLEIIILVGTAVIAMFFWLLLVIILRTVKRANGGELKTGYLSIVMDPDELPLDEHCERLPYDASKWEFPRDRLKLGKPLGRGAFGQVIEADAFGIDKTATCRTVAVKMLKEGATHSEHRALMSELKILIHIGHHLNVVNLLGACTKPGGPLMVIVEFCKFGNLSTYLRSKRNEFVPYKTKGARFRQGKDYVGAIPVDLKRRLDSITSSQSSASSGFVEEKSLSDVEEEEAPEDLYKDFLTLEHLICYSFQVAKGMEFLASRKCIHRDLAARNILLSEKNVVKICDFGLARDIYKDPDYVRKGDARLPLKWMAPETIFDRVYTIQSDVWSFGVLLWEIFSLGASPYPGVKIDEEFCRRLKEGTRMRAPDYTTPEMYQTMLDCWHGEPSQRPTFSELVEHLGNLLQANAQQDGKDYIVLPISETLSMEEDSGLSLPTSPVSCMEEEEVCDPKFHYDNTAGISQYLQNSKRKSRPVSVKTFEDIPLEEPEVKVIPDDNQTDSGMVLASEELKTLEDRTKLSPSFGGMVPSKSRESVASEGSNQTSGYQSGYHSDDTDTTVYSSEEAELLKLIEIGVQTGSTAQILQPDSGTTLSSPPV

C(#Cc1ccnc2[nH]ccc12)c1ccc(-c2csnn2)cc1 [compound 136]
> 1 µM: all assays above

Nc1ccccc1C#Cc1cnc2[nH]ccc2c1 [compound 137]
> 1 µM: all assays above

COc1ccc(C#Cc2cnc3[nH]ccc3c2)cc1 [compound 138]
> 1 µM: all assays above

COc1ccc(NC(=O)Cc2ccccc2C#Cc2ccnc3[nH]ccc23)cc1 [compound 139]
> 1 µM: all assays above
